System: BrdU positive cells in cervical spinal cord
Assay: In vivo infusion of growth factors into ventricles, BrdU labelling of cervical spinal cord (Example 30)
Parameters: species or system mouse
Conditions: 25 μg/mL, osmotic mini-pump, six days
Method: Adult male CD1 albino mice (30-35 g) from Charles River were anaesthetized with sodium pentobarbital ([…]) and placed in a stereotaxic apparatus. The dorsal aspect of the skull was exposed with a longitudinal incision. Cannulas were inserted into the fourth ventricle (stereotaxic coordinates A/P −7.0, L ±0.3 D/V −5.8), cerebral aqueduct (A/P −4.8 L ±D/V −2.6), or central canal (DIV −1.5). The cannulae were attached with sterile tubing to subcutaneous positioned ALZET osmotic mini-pumps containing 25 μg/mL EGF (Becton 40001) and/or 25 μg/mL FGF-2 (R&D Systems 233-FB). Pumps containing sterile saline plus 0.1% mouse albumin (Sigma A3134) were used as controls. The incisions were closed with dental cement.
Six days following surgery mice were injected with 0.15 mL BrdU (Sigma B5002); 18 mg/mL in 0.007% NaOH/0.1M PBS) every 2 hours for 8 hours. They were killed 0.5 hours after the last injection with an anaesthetic overdose, and transcardially perfused with 10 mL of ice-cold sterile saline followed by 10 mL of ice-cold Bouin's fixative (5% glacial acetic acid, 9% formaldehyde, 70% picric acid). The cervical spinal cord region was dissected out and post-fixed overnight at 4° C. in Bouin's post-fixative solution (9% formaldehyde, 70% picric acid). […] The number of BrdU positive cells was counted per cervical spinal cord section. […]

Q: Which “number of BrdU labelled cells per cervical spinal cord section compared to control” value does the source give for “bFGF: basic fibroblast growth factor, recombinant human (R & D Systems)” here?
A: significant increase
